Experimental data as given in PMC8858294, “Impact of distant peptide substrate residues on enzymatic activity of SlyD” (Cellular and Molecular Life Sciences: CMLS, 2022).
Ends that are not written are not given here.

Legend:
SlyD^WT = assay: Label-free 1H NMR lineshape prolyl isomerase activity assay with SlyD^WT; type: biochemical, Thermus thermophilus; conditions: for kcat/KM (SlyD^WT): 1H NMR lineshape analysis, 100 µM peptide, 0 to 6 µM enzyme, 25 °C, 20 mM HEPES, 100 mM NaCl, pH 7.5, linear regression of exchange rate vs enzyme concentration, technical triplicates, error one standard deviation
Experimental: (§1) ^1H NMR spectra of 100 µM peptide samples in 20 mM HEPES, 100 mM NaCl, pH 7.5 were acquired on a Bruker Avance III NMR-spectrometer at 25 °C and different concentrations of enzyme (0 to 6 µM). Samples contained 10% (v/v) D2O and 0.5 mM TCEP. Spectra have been corrected by subtracting identically measured and processed spectra of enzyme only samples, in order to rule out any influence of signals from the enzymes. Spectra were processed using Topspin (Bruker, Inc) and analyzed in MATLAB (mathworks). […] The obtained relative line broadening of the cis and trans signals of methyl group I, is caused by chemical exchange between the two forms and depends on the population of the cis and trans forms, their chemical shift difference (which are both known from experiments without enzyme) and the apparent exchange rate which was derived from the fit. Errors in the fitted parameters were estimated using Monte-Carlo simulations; the reported errors correspond to one standard deviation.
(§2) Tetrapeptides terminally fused with fluorophores sensitive to proline isomerization have been routinely used to study the activity of peptidyl-prolyl cis–trans isomerases, such as SlyD [11]. […] Studying longer peptides usually requires 2D NMR spectroscopy, often in combination with ^13C labeling, in order to detect separate signals for the cis and trans state. […] This approach, which was initially developed for chemically modified tetrapeptides, relies only on the interaction of a leucine residue upstream of the proline (i − 1) and a phenylalanine residue downstream of the proline (i + 1). The different orientations of the leucine and phenylalanine residues in cis and trans proline conformations give rise to different signals for one of the leucine methyl groups (I), while the other methyl group (II) is mostly unaffected (Fig. 2A). At the same time, the impact of the proline cis/trans conformation on the leucine methyl groups is not dependent on the length of the peptide. The only requirement for the design of the peptide substrate is the absence of additional leucine, isoleucine or valine residues that could interfere with the NMR signals of interest. The linewidth of the signals is affected by the enzymatic turnover rate, which itself is dependent on the enzyme concentration (Fig. 2A). The enzymatic activity (kcat/KM) is then determined by the linear regression of the determined rate at various enzyme concentrations at a fixed substrate concentration below KM (Fig. 2B and SI Fig. 1).

[1] = molecular target: T1, SlyD^WT IF (chaperone) domain (Thermus thermophilus, UniProt Q5SLE7); assay: biochemical; type: binding
T1 sequence (Q5SLE7 70-117): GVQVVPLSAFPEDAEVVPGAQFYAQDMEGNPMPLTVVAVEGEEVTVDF
Experimental: (§3) ITC was measured using MicroCal VP-ITC calorimeter (Malvern) and analysed with MicroCal ITC-ORIGIN Analysis Software. First 1 × 3 µl and then 42 × 6.5 µl of 1.2 mM peptides dissolved in 20 mM HEPES (pH 7.5) and 100 mM NaCl were injected every 240 s from the syringe into the cell containing 50 µM SlyD at 25 °C. The resulting isotherms were fitted with one binding site model in case of SlyDΔIF construct and with two binding site model in case of the wild-type SlyD.

[2] = molecular target: T2, SlyD^WT FKBP (PPIase) domain (Thermus thermophilus, UniProt Q5SLE7); assay: biochemical; type: binding
T2 sequence (Q5SLE7 1-149): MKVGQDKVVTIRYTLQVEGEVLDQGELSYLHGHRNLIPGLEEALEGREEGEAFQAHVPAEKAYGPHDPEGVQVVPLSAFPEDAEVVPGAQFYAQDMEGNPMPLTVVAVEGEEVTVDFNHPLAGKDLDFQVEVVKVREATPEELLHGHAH
Experimental: as §3

[3] = system: SlyD^WT FKBP (PPIase) domain; assay: biochemical; type: binding, Thermus thermophilus; conditions: ITC, SlyD^WT and SlyDΔIF
Experimental: as §3

SlyDΔIF [4] = molecular target: T3, SlyDΔIF (Thermus thermophilus, UniProt Q5SLE7); assay: Label-free 1H NMR lineshape prolyl isomerase activity assay with SlyDΔIF; type: biochemical; conditions: 1H NMR lineshape analysis, 100 µM peptide, 0 to 6 µM enzyme, 25 °C, 20 mM HEPES, 100 mM NaCl, pH 7.5; linear regression of exchange rate vs enzyme concentration; technical triplicates; error one standard deviation
Experimental: as §1, §2

SlyDΔIF [5] = molecular target: T3, SlyDΔIF; assay: ITC, peptide binding to SlyDΔIF (one binding site model); conditions: read-out: KD (SlyDΔIF), 1.2 mM peptide into 50 µM SlyD, 25 °C, 20 mM HEPES pH 7.5, 100 mM NaCl, ± error of fit
Experimental: as §3

H-TRYENAKMLPFAFGA-OH [W4E] was tested, and the “kcat/KM (SlyD^WT)” value (SlyD^WT) was 4.4e+06 ± 200000 M⁻¹ s⁻¹, the Kd [1] was 0.86 ± 0.02 µM and the Kd [2] was 13.9 ± 0.9 µM. The “reduction in affinity compared to the psWT peptide” value [3] was “up to fivefold” and the “kcat/KM (SlyDΔIF)” value (SlyDΔIF [4]) was 900000 ± 200000 M⁻¹ s⁻¹.

H-TRYKNAKMLPFAFGA-OH [W4K] was tested, and the “kcat/KM (SlyD^WT)” value (SlyD^WT) was 2.2e+06 ± 300000 M⁻¹ s⁻¹, the Kd (SlyDΔIF [5]) was 12.6 ± 0.8 µM and the Kd [1] was 0.21 ± 0.01 µM. The Kd [2] was 3.2 ± 0.3 µM and the “kcat/KM (SlyDΔIF)” value (SlyDΔIF [4]) was 3.5e+06 ± 700000 M⁻¹ s⁻¹.

In the case of H-TRYWNAKMLPFAEGA-OH [F13E], the “kcat/KM (SlyD^WT)” value (SlyD^WT) is reported as 7e+06 ± 600000 M⁻¹ s⁻¹, the Kd (SlyDΔIF [5]) is reported as 36.1 ± 0.8 µM and the Kd [1] is reported as 1.15 ± 0.01 µM. The Kd [2] was 10.4 ± 0.5 µM, the “reduction in affinity compared to the psWT peptide” value [3] was “up to fivefold” and the “kcat/KM (SlyDΔIF)” value (SlyDΔIF [4]) was 100000 ± 100000 M⁻¹ s⁻¹.

With H-TRYWNAKMLPFAFGL-OH [A15L] the Kd (SlyDΔIF [5]) was 14.8 ± 0.2 µM, the Kd [1] was 0.16 ± 0.02 µM and the Kd [2] was 4.1 ± 0.1 µM.

With H-TRYWNAKMLPFAFMA-OH [G14M] the Kd (SlyDΔIF [5]) was 8.3 ± 0.5 µM, the Kd [1] was 0.1 ± 0.01 µM and the Kd [2] was 2.2 ± 0.1 µM.

In the case of H-TRYWNAKMLPFAKGA-OH [F13K], the “kcat/KM (SlyD^WT)” value (SlyD^WT) is reported as 3.4e+06 ± 100000 M⁻¹ s⁻¹, the Kd (SlyDΔIF [5]) is reported as 20 ± 0.7 µM and the Kd [1] is reported as 0.11 ± 0.02 µM. The Kd [2] was 5.2 ± 0.2 µM and the “kcat/KM (SlyDΔIF)” value (SlyDΔIF [4]) was 2.3e+06 ± 300000 M⁻¹ s⁻¹.

In the case of “R2A: psWT peptide substrate with mutation R2A (TAYWNAKMLPFAFGA)”, the “kcat/KM (SlyD^WT)” value (SlyD^WT) is reported as 5.1e+06 ± 300000 M⁻¹ s⁻¹ and the “kcat/KM (SlyDΔIF)” value (SlyDΔIF [4]) is reported as 1.3e+06 ± 200000 M⁻¹ s⁻¹.

With TRAWNAKMLPFAFGA [Y3A] the “kcat/KM (SlyD^WT)” value (SlyD^WT) was 3.9e+06 ± 400000 M⁻¹ s⁻¹, the Kd (SlyDΔIF [5]) was 51.5 ± 8.6 µM and the Kd [1] was 0.72 ± 0.1 µM. The Kd [2] was 17.3 ± 1.3 µM and the “kcat/KM (SlyDΔIF)” value (SlyDΔIF [4]) was 2.5e+06 ± 300000 M⁻¹ s⁻¹.

TRYANAKMLPFAFGA [W4A] was tested, and the “kcat/KM (SlyD^WT)” value (SlyD^WT) was 2e+06 ± 200000 M⁻¹ s⁻¹, the Kd [1] was 0.75 ± 0.06 µM and the Kd [2] was 8.4 ± 0.4 µM. For the same substance, the “kcat/KM (SlyDΔIF)” value (SlyDΔIF [4]) was 1.1e+06 ± 200000 M⁻¹ s⁻¹.

In the case of TRYWNAKALPFAFGA [M8A], the “kcat/KM (SlyD^WT)” value (SlyD^WT) is reported as 7.7e+06 ± 900000 M⁻¹ s⁻¹, the Kd (SlyDΔIF [5]) is reported as 19.4 ± 1 µM and the Kd [1] is reported as 0.24 ± 0.01 µM. The Kd [2] was 6 ± 0.1 µM and the “kcat/KM (SlyDΔIF)” value (SlyDΔIF [4]) was 3.1e+06 ± 100000 M⁻¹ s⁻¹.

TRYWNAKMLPFAAGA [F13A] was tested, and the “kcat/KM (SlyD^WT)” value (SlyD^WT) was 3.1e+06 ± 100000 M⁻¹ s⁻¹, the Kd (SlyDΔIF [5]) was 22.7 ± 0.6 µM and the Kd [1] was 0.38 ± 0.02 µM. The Kd [2] was 6.4 ± 0.3 µM and the “kcat/KM (SlyDΔIF)” value (SlyDΔIF [4]) was 400000 ± 100000 M⁻¹ s⁻¹.

In the case of TRYWNAKMLPFAFGA [psWT], the “kcat/KM (SlyD^WT)” value (SlyD^WT) is reported as 4.9e+06 ± 300000 M⁻¹ s⁻¹, the “increase of activity by the chaperone domain (factor, SlyD^WT vs SlyDΔIF)” value (SlyD^WT; 15-residue peptide at 100 µM, chaperone domain occupied) is reported as 2.2 and the Kd (SlyDΔIF [5]) is reported as 15.6 ± 0.2 µM. The Kd [1] was 0.22 ± 0.01 µM, the Kd [2] was 3.5 ± 0.1 µM and the “kcat/KM (SlyDΔIF)” value (SlyDΔIF [4]) was 2.2e+06 ± 300000 M⁻¹ s⁻¹.
